Laboratory results: PubChem BioAssay AID330 (DTP/NCI, 2004)
Several values for one entry are separate records, joined by “and”; a condition that tells them apart may be missing. Equal values may be shown once. Toxic doses and inconclusive results are not listed.

System: P388 leukemia ip, CD2F1 mice, survival T/C
Experiment: NCI In Vivo Anticancer Drug Screen. Data for tumor model P388 Leukemia (intraperitoneal) in CD2F1 (CDF1) mice
Conditions: endpoint: median survival time, higher = longer survival
How it was run: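 Mice carrying the transplanted tumor received test compound or vehicle. Survival was recorded in each group, and the value is the treated-group measurement divided by that of the vehicle-treated control group.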

[1] = dose: 60.0 mg/kg/injection, schedule: Q01DX005 (ip), vehicle: saline with Tween-80
[2] = dose: 120.0 mg/kg/injection, schedule: Q01DX005 (ip), vehicle: saline with Tween-80
[3] = dose: 240.0 mg/kg/injection, schedule: Q01DX005 (ip), vehicle: saline with Tween-80

COc1ccc(CC2C(=O)NC(C)C(=O)N(C)C3Cc4ccc(cc4)Oc4cc(ccc4O)CC(C(=O)NC(C)C(=O)NC(C)C(=O)N2C)N(C)C3=O)cc1 (centres undefined)
T/C (dose: 0.19 mg/kg/injection, schedule: Q03HX024 (ip), vehicle: other): 156 % of control | T/C (dose: 0.38 mg/kg/injection, schedule: Q03HX024 (ip), vehicle: other): 171 % of control | T/C (dose: 0.45 mg/kg/injection, schedule: Q01DX005 (iv), vehicle: other): 108 % of control | T/C (dose: 0.5 mg/kg/injection, schedule: Q01DX009 (ip), vehicle: other): 161 % of control | T/C (dose: 0.75 mg/kg/injection, schedule: Q03HX024 (ip), vehicle: other): 167 % of control | T/C (dose: 0.9 mg/kg/injection, schedule: Q01DX005 (ip), vehicle: other): 166 % of control | T/C (dose: 0.9 mg/kg/injection, schedule: Q01DX005 (iv), vehicle: other): 96 % of control | T/C (dose: 1.0 mg/kg/injection, schedule: Q01DX009 (ip), vehicle: other): 172 % of control | T/C (dose: 1.0 mg/kg/injection, schedule: Q01DX009 (ip), vehicle: saline with Tween-80): 163 % of control | T/C (dose: 1.13 mg/kg/injection, schedule: Q01DX001 (iv), vehicle: other): 103 % of control | T/C (dose: 1.13 mg/kg/injection, schedule: Q03HX008 (ip), vehicle: other): 162 % of control | T/C (dose: 1.5 mg/kg/injection, schedule: Q04DX003 (ip), vehicle: other): 157 % of control | T/C (dose: 1.8 mg/kg/injection, schedule: Q01DX005 (ip), vehicle: other): 173 % of control | T/C (dose: 1.8 mg/kg/injection, schedule: Q01DX005 (iv), vehicle: other): 99 % of control | T/C (dose: 2.0 mg/kg/injection, schedule: Q01DX009 (ip), vehicle: other): 192 % of control | T/C (dose: 2.0 mg/kg/injection, schedule: Q01DX009 (ip), vehicle: saline with Tween-80): 152 % of control and 159 % of control | T/C (dose: 2.0 mg/kg/injection, schedule: Q01DX009 (oral), vehicle: other): 105 % of control | T/C (dose: 2.25 mg/kg/injection, schedule: Q01DX001 (iv), vehicle: other): 105 % of control | T/C (dose: 3.0 mg/kg/injection, schedule: Q04DX003 (ip), vehicle: other): 152 % of control | T/C (dose: 3.6 mg/kg/injection, schedule: Q01DX005 (ip), vehicle: other): 163 % of control | T/C (dose: 3.6 mg/kg/injection, schedule: Q01DX005 (iv), vehicle: other): 116 % of control | T/C (dose: 4.0 mg/kg/injection, schedule: Q01DX009 (ip), vehicle: other): 193 % of control | T/C (dose: 4.0 mg/kg/injection, schedule: Q01DX009 (ip), vehicle: saline with Tween-80): 174 % of control and 186 % of control | T/C (dose: 4.0 mg/kg/injection, schedule: Q01DX009 (oral), vehicle: other): 103 % of control | T/C (dose: 4.5 mg/kg/injection, schedule: Q01DX001 (iv), vehicle: other): 111 % of control | T/C (dose: 6.0 mg/kg/injection, schedule: Q04DX003 (ip), vehicle: other): 163 % of control | T/C (dose: 7.2 mg/kg/injection, schedule: Q01DX005 (ip), vehicle: other): 182 % of control | T/C (dose: 7.2 mg/kg/injection, schedule: Q01DX005 (iv), vehicle: other): 153 % of control | T/C (dose: 8.0 mg/kg/injection, schedule: Q01DX009 (ip), vehicle: other): 233 % of control | T/C (dose: 8.0 mg/kg/injection, schedule: Q01DX009 (ip), vehicle: saline with Tween-80): 155 % of control | T/C (dose: 8.0 mg/kg/injection, schedule: Q01DX009 (oral), vehicle: other): 96 % of control | T/C (dose: 9.0 mg/kg/injection, schedule: Q01DX001 (iv), vehicle: other): 123 % of control | T/C (dose: 12.0 mg/kg/injection, schedule: Q04DX003 (ip), vehicle: other): 153 % of control | T/C (dose: 16.0 mg/kg/injection, schedule: Q01DX009 (oral), vehicle: other): 97 % of control | T/C (dose: 32.0 mg/kg/injection, schedule: Q01DX009 (oral), vehicle: other): 94 % of control

COc1cc(NCCCCCCNC(C)C)c2ncccc2c1
T/C (dose: 6.25 mg/kg/injection, schedule: Q01DX005 (ip), vehicle: saline with Tween-80): 100 % of control | T/C (dose: 12.5 mg/kg/injection, schedule: Q01DX005 (ip), vehicle: saline with Tween-80): 102 % of control | T/C (dose: 25.0 mg/kg/injection, schedule: Q01DX005 (ip), vehicle: saline with Tween-80): 95 % of control

CCN(Cc1ccccc1)C(=O)Nc1c(Cl)cccc1Cl
T/C [1]: 92 % of control | T/C [2]: 95 % of control | T/C [3]: 86 % of control

CCCCC/C(=C\c1ccccc1)C1OCC(COCC)O1 (centres undefined)
T/C (dose: 100.0 mg/kg/injection, schedule: Q01DX009 (ip), vehicle: saline + Tween-80 + alcohol): 119 % of control | T/C (dose: 200.0 mg/kg/injection, schedule: Q01DX009 (ip), vehicle: saline + Tween-80 + alcohol): 118 % of control

CCC12CCCN1CCc1c([nH]c3ccccc13)C2=O (centres undefined)
T/C (dose: 100.0 mg/kg/injection, schedule: Q04DX002 (ip), vehicle: suspension in saline): 105 % of control | T/C (dose: 200.0 mg/kg/injection, schedule: Q04DX002 (ip), vehicle: suspension in saline): 99 % of control

CCN=P1(N(C(C)C)C(C)C)N(CC)N=NN1C(C)(C)C (centres undefined)
T/C (dose: 1.56 mg/kg/injection, schedule: Q01DX005 (ip), vehicle: Klucel (hydroxypropylcellulose) (HPC)): 102 % of control | T/C (dose: 3.12 mg/kg/injection, schedule: Q01DX005 (ip), vehicle: Klucel (hydroxypropylcellulose) (HPC)): 104 % of control | T/C (dose: 6.25 mg/kg/injection, schedule: Q01DX005 (ip), vehicle: Klucel (hydroxypropylcellulose) (HPC)): 100 % of control | T/C (dose: 12.5 mg/kg/injection, schedule: Q01DX005 (ip), vehicle: Klucel (hydroxypropylcellulose) (HPC)): 104 % of control | T/C (dose: 50.0 mg/kg/injection, schedule: Q01DX005 (ip), vehicle: Klucel (hydroxypropylcellulose) (HPC)): 111 % of control

CCCCCCC(=O)/C=c1\c(CC(=O)CCCCCC)nc2nnc(N)n12
T/C [1]: 96 % of control | T/C [2]: 100 % of control | T/C [3]: 88 % of control

C=C[Se](=C(C(C)=O)C(C)=O)c1ccccc1 (centres undefined)
T/C (dose: 12.5 mg/kg/injection, schedule: Q01DX009 (ip), vehicle: saline with Tween-80): 97 % of control | T/C (dose: 25.0 mg/kg/injection, schedule: Q01DX009 (ip), vehicle: saline with Tween-80): 96 % of control | T/C (dose: 50.0 mg/kg/injection, schedule: Q01DX009 (ip), vehicle: saline with Tween-80): 98 % of control | T/C (dose: 50.0 mg/kg/injection, schedule: Q01DX009 (ip), vehicle: saline): 92 % of control | T/C (dose: 100.0 mg/kg/injection, schedule: Q01DX009 (ip), vehicle: saline): 99 % of control | T/C (dose: 200.0 mg/kg/injection, schedule: Q01DX009 (ip), vehicle: saline): 92 % of control

CC(=O)Oc1ccc(=O)[nH]c1
T/C (dose: 12.5 mg/kg/injection, schedule: Q01DX009 (ip), vehicle: saline): 100 % of control and 105 % of control

CC(C)(C)c1ccc(S(=O)[O][Sn]([CH3])([CH3])[O]S(=O)c2ccc(C(C)(C)C)cc2)cc1 (centres undefined)
T/C (dose: 50.0 mg/kg/injection, schedule: Q01DX001 (ip), vehicle: Klucel (hydroxypropylcellulose) (HPC)): 110 % of control | T/C (dose: 200.0 mg/kg/injection, schedule: Q01DX001 (ip), vehicle: Klucel (hydroxypropylcellulose) (HPC)): 114 % of control

O=C(CC1=NC2NN(c3ccccc3)C(=O)C2=C1CC(=O)c1ccccc1)c1ccccc1 (centres undefined)
T/C (dose: 60.0 mg/kg/injection, schedule: Q01DX005 (ip), vehicle: saline): 100 % of control | T/C (dose: 120.0 mg/kg/injection, schedule: Q01DX005 (ip), vehicle: saline): 107 % of control | T/C (dose: 240.0 mg/kg/injection, schedule: Q01DX005 (ip), vehicle: saline): 110 % of control

N#CC(C#N)=C(O)/C(=C/c1ccc(Cl)c(Cl)c1)NC(=O)c1ccccc1
T/C (dose: 50.0 mg/kg/injection, schedule: Q01DX005 (ip), vehicle: saline): 88 % of control | T/C (dose: 100.0 mg/kg/injection, schedule: Q01DX005 (ip), vehicle: saline): 88 % of control | T/C (dose: 200.0 mg/kg/injection, schedule: Q01DX005 (ip), vehicle: saline): 104 % of control

CC1(C)N=C(c2ccccc2)C(c2ccccc2)=NC1(C)C
T/C (dose: 100.0 mg/kg/injection, schedule: Q04DX002 (ip), vehicle: saline): 101 % of control | T/C (dose: 200.0 mg/kg/injection, schedule: Q04DX002 (ip), vehicle: saline): 98 % of control | T/C (dose: 400.0 mg/kg/injection, schedule: Q04DX002 (ip), vehicle: saline): 104 % of control

NC(=O)N1CCC2c3ccccc3NC(=S)N21 (centres undefined)
T/C (dose: 100.0 mg/kg/injection, schedule: Q01DX001 (ip), vehicle: saline with Tween-80): 102 % of control | T/C (dose: 200.0 mg/kg/injection, schedule: Q01DX001 (ip), vehicle: saline with Tween-80): 99 % of control | T/C (dose: 400.0 mg/kg/injection, schedule: Q01DX001 (ip), vehicle: saline with Tween-80): 99 % of control
